From paper PMC8288134, “Synthesis, potential antitumor activity, cell cycle analysis, and multitarget mechanisms of novel hydrazones incorporating a 4-methylsulfonylbenzene scaffold: a molecular docking study” (Journal of Enzyme Inhibition and Medicinal Chemistry, 2021)
Read-outs that look alike come from different tables or passages of the source.

What was measured:
HL-60(TB) = assay: cells; type: cell-based, human; conditions: for inhibition at 10 µM: HL-60, HL-60(TB), read-out: Growth inhibition percentage (GI%)
NCI-H322M = assay: NCI antitumor screen (SRB); type: cell-based; conditions: Homo sapiens; for inhibition at 10 µM: read-out: Growth inhibition percentage (GI%)
NCI-H460 [1] = assay: NCI antitumor screen (SRB); type: cell-based; conditions: Homo sapiens; for inhibition at 10 µM: one dose 10 µM, read-out: Growth inhibition percentage (GI%)
COLO 205 = assay: NCI antitumor screen (SRB); type: cell-based; conditions: Homo sapiens; for inhibition at 10 µM: one dose 10 µM, read-out: Growth inhibition percentage (GI%)
SNB-19 = assay: NCI antitumor screen (SRB); type: cell-based; conditions: Homo sapiens; for inhibition at 10 µM: one dose 10 µM, read-out: Growth inhibition percentage (GI%)
SNB-75 [2] = assay: NCI antitumor screen (SRB); type: cell-based; conditions: Homo sapiens; for inhibition at 10 µM: one dose 10 µM, read-out: Growth inhibition percentage (GI%)
IGROV1 = assay: NCI antitumor screen (SRB); type: cell-based; conditions: Homo sapiens; for inhibition at 10 µM: IGROV-1, one dose 10 µM, read-out: Growth inhibition percentage (GI%)
OVCAR-3 = assay: NCI antitumor screen (SRB); type: cell-based; conditions: Homo sapiens; for inhibition at 10 µM: one dose 10 µM, read-out: Growth inhibition percentage (GI%)
OVCAR-5 [3] = assay: NCI antitumor screen (SRB); type: cell-based; conditions: Homo sapiens; for inhibition at 10 µM: one dose 10 µM, read-out: Growth inhibition percentage (GI%)
786-0 = assay: NCI antitumor screen (SRB); type: cell-based; conditions: Homo sapiens; for inhibition at 10 µM: one dose 10 µM, read-out: Growth inhibition percentage (GI%)
CAKI-1 = assay: NCI antitumor screen (SRB); type: cell-based; conditions: Homo sapiens; for inhibition at 10 µM: one dose 10 µM, read-out: Growth inhibition percentage (GI%)
MCF7 [4] = assay: NCI antitumor screen (SRB); type: cell-based; conditions: Homo sapiens; for inhibition at 10 µM: one dose 10 µM, read-out: Growth inhibition percentage (GI%)
T-47D = assay: NCI antitumor screen (SRB); type: cell-based; conditions: Homo sapiens, T47D; for inhibition at 10 µM: one dose 10 µM, read-out: Growth inhibition percentage (GI%)
COX-2 = target: T1, COX-2 (Ovis aries, UniProt P79208); assay: biochemical; conditions: mean of three determinations; read-out: IC50 COX-2 Inhibition
T1 construct: purchased Cayman Chemical 560101
T1 sequence (P79208 17-603): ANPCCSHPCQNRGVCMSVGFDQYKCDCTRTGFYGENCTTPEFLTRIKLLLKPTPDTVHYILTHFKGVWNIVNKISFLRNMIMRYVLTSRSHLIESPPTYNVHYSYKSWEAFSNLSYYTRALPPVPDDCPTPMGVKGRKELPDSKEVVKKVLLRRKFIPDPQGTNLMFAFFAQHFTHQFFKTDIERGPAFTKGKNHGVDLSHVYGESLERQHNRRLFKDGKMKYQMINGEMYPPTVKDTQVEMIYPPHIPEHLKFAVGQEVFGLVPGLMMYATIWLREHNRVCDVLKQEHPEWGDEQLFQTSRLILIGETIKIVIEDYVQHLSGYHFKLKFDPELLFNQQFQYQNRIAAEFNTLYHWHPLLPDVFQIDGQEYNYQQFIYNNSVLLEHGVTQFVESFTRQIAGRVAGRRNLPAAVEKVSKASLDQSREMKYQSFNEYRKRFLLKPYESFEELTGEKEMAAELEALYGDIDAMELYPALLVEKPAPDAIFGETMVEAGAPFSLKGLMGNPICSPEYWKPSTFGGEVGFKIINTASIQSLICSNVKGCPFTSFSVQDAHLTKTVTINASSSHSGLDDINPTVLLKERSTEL
Procedure: had been previously attached to the well. The plate was washed to remove any unbound reagents, and then Ellman’s reagent, containing the substrate of acetylcholine esterase, was added to the well. This enzymatic reaction produced a distinct yellow color that was absorbed in 410 nm. The intensity of the color, determined spectrophotometrically, was proportional to the amount of PG tracer bound to the well, which was inversely proportional to PGs present in the well during the incubation: Absorbance ∝ [Bound PG Tracer] a1/PGs. Percent inhibition was calculated by comparing the treated compound to various control incubations. The test compound […]
inhibition response curve (duplicate determinations). […]

[5] = system: full panel of 59 cancer cell lines; assay: NCI antitumor screen, full panel; conditions: for PCE: positive cytotoxic effect (number of cell lines with GI 10 to 100% / total number of cell lines): one dose 10 µM
K-562 = system: K-562; design: method as in https://dtp.cancer.gov/dtpstandard/dwindex/index.jsp; conditions: reference drugs, ref https://dtp.cancer.gov/dtpstandard/dwindex/index.jsp; cited from earlier work
SR = system: SR; design: method as in https://dtp.cancer.gov/dtpstandard/dwindex/index.jsp; conditions: reference drugs, ref https://dtp.cancer.gov/dtpstandard/dwindex/index.jsp; cited from earlier work
NCI-H460 [6] = system: NCI-H460; design: method as in https://dtp.cancer.gov/dtpstandard/dwindex/index.jsp; conditions: reference drugs, ref https://dtp.cancer.gov/dtpstandard/dwindex/index.jsp; cited from earlier work
NCI-H522 = system: NCI-H522; design: method as in https://dtp.cancer.gov/dtpstandard/dwindex/index.jsp; conditions: reference drugs, ref https://dtp.cancer.gov/dtpstandard/dwindex/index.jsp; cited from earlier work
HCC-2998 = system: HCC-2998; design: method as in https://dtp.cancer.gov/dtpstandard/dwindex/index.jsp; conditions: reference drugs, ref https://dtp.cancer.gov/dtpstandard/dwindex/index.jsp; cited from earlier work
SNB-75 [7] = system: SNB-75; design: method as in https://dtp.cancer.gov/dtpstandard/dwindex/index.jsp; conditions: reference drugs, ref https://dtp.cancer.gov/dtpstandard/dwindex/index.jsp; cited from earlier work
OVCAR-5 [8] = system: OVCAR-5; design: method as in https://dtp.cancer.gov/dtpstandard/dwindex/index.jsp; conditions: reference drugs, ref https://dtp.cancer.gov/dtpstandard/dwindex/index.jsp; cited from earlier work
ACHN = system: ACHN; design: method as in https://dtp.cancer.gov/dtpstandard/dwindex/index.jsp; conditions: reference drugs, ref https://dtp.cancer.gov/dtpstandard/dwindex/index.jsp; cited from earlier work
RXF 393 = system: RXF 393; design: method as in https://dtp.cancer.gov/dtpstandard/dwindex/index.jsp; conditions: reference drugs, ref https://dtp.cancer.gov/dtpstandard/dwindex/index.jsp; cited from earlier work
MCF7 [9] = system: MCF7; design: method as in https://dtp.cancer.gov/dtpstandard/dwindex/index.jsp; conditions: reference drugs, ref https://dtp.cancer.gov/dtpstandard/dwindex/index.jsp; cited from earlier work
[10] = system: CNS cancer tumour cell lines; conditions: cited from earlier work
[11] = system: prostate cancer tumour cell lines; conditions: cited from earlier work
[12] = system: full panel of 59 cancer cell lines; conditions: cited from earlier work
[13] = five concentrations 0.01-100 µM
[14] = read-out: GI50 (subpanel average), reference drugs, ref https://dtp.cancer.gov/dtpstandard/dwindex/index.jsp
[15] = read-out: LC50 (subpanel average), reference drugs, ref https://dtp.cancer.gov/dtpstandard/dwindex/index.jsp
[16] = reference drugs, ref https://dtp.cancer.gov/dtpstandard/dwindex/index.jsp

SMILES: Cc1ccc(C=NNC(=O)c2ccc(S(C)(=O)=O)cc2)cc1 [Compound 9, N'-(4-Methylbenzylidene)-4-(methylsulfonyl)benzohydrazide]
- inhibition at 10 µM (HL-60(TB); Homo sapiens, one dose 10 µM): 24.3%
- inhibition at 10 µM (NCI-H322M; one dose 10 µM): < 10%
- inhibition at 10 µM (NCI-H460 [1]): < 10%
- inhibition at 10 µM (COLO 205): < 10%
- inhibition at 10 µM (SNB-19): < 10%
- inhibition at 10 µM (SNB-75 [2]): < 10%
- inhibition at 10 µM (IGROV1): 12.3%
- inhibition at 10 µM (OVCAR-3): < 10%
- inhibition at 10 µM (OVCAR-5 [3]): < 10%
- inhibition at 10 µM (786-0): < 10%
- inhibition at 10 µM (CAKI-1): 25%
- inhibition at 10 µM (MCF7 [4]): 21.4%
- inhibition at 10 µM (T-47D): < 10%
- IC50 (COX-2): 2970 ± 70 nM
- PCE: positive cytotoxic effect (number of cell lines with GI 10 to 100% / total number of cell lines) [5]: 27/59

SMILES: CS(=O)(=O)c1ccc(C(=O)N/N=C/c2ccccc2O)cc1 [Compound 16]
- inhibition at 10 µM (HL-60(TB); Homo sapiens, one dose 10 µM): 93.7%
- inhibition at 10 µM (NCI-H322M): 61.6%
- inhibition at 10 µM (NCI-H460 [1]): 85.9%
- inhibition at 10 µM (COLO 205): 68.8%
- inhibition at 10 µM (SNB-19): 54.6%
- inhibition at 10 µM (SNB-75 [2]): 22.3%
- inhibition at 10 µM (IGROV1): 59%
- inhibition at 10 µM (OVCAR-3): 77.2%
- inhibition at 10 µM (OVCAR-5 [3]): 35.3%
- inhibition at 10 µM (786-0): 67%
- inhibition at 10 µM (CAKI-1): 65.1%
- inhibition at 10 µM (MCF7 [4]): 77.5%
- inhibition at 10 µM (T-47D): 47.6%
- IC50 (COX-2): 82400 ± 3610 nM
- PCE: positive cytotoxic effect (number of cell lines with GI 10 to 100% / total number of cell lines) [5]: 59/59

SMILES: CCN(CC)c1ccc(/C=N/NC(=O)c2ccc(S(C)(=O)=O)cc2)c(O)c1 [Compound 20]
- Growth inhibition percentage (GI%) (HL-60(TB); HL-60(TB), one dose 10 µM): >100%
- inhibition at 10 µM (HL-60(TB); Homo sapiens, one dose 10 µM): 100%
- GI50 (HL-60(TB); Homo sapiens, HL-60(TB), five concentrations 0.01-100 µM): 164 nM
- GI50 (NCI-H322M; [13]): 228 nM
- inhibition at 10 µM (NCI-H322M; one dose 10 µM): 75%
- GI50 (NCI-H460 [1]; [13]): 113 nM
- inhibition at 10 µM (NCI-H460 [1]): 96.7%
- GI50 (COLO 205; [13]): 269 nM
- inhibition at 10 µM (COLO 205): 91.4%
- GI50 (SNB-19; [13]): 428 nM
- inhibition at 10 µM (SNB-19): 68%
- GI50 (SNB-75 [2]; [13]): 228 nM
- inhibition at 10 µM (SNB-75 [2]): 44.8%
- GI50 (IGROV1; IGROV-1, five concentrations 0.01-100 µM): 196 nM
- inhibition at 10 µM (IGROV1): 78.8%
- GI50 (OVCAR-3; [13]): 125 nM
- inhibition at 10 µM (OVCAR-3): 66.6%
- GI50 (OVCAR-5 [3]; [13]): 6480 nM
- inhibition at 10 µM (OVCAR-5 [3]): 67.5%
- GI50 (786-0; [13]): 182 nM
- inhibition at 10 µM (786-0): 84.6%
- GI50 (CAKI-1; [13]): 104 nM
- inhibition at 10 µM (CAKI-1): 79.6%
- GI50 (MCF7 [4]; [13]): 253 nM
- inhibition at 10 µM (MCF7 [4]): 91.2%
- GI50 (T-47D; [13]): 390 nM
- inhibition at 10 µM (T-47D): 70%
- IC50 (COX-2): 6940 ± 410 nM
- GI50 ([5]; Homo sapiens, read-out: GI50 (range over cell lines)): 63 to 11700 nM
- GI50 ([5]; Homo sapiens, read-out: GI50 MG-MID (full panel mean-graph midpoint)): 260 nM
- CC50 ([5]; Homo sapiens, read-out: LC50 MG-MID (full panel mean-graph midpoint)): > 100000 nM
- TGI MG-MID (full panel mean-graph midpoint) ([5]; full panel): 46800 nM
- PCE: positive cytotoxic effect (number of cell lines with GI 10 to 100% / total number of cell lines) [5]: 59/59
- fold more potent than 5-Fu ([5]; ratio of GI50 MG_MID): ~3 fold
- fold more potent than celecoxib ([5]; ratio of GI50 MG_MID): ~65 fold
- fold more potent than erlotinib ([5]; ratio of GI50 MG_MID): ~30 fold
- fold more potent than gefitinib and sorafenib ([5]; ratio of GI50 MG_MID): ~9 fold

SMILES: CNC(=O)c1cc(Oc2ccc(NC(=O)Nc3ccc(Cl)c(C(F)(F)F)c3)cc2)ccn1 [Sorafenib, sorafenib]
- GI50 (K-562): 3160 nM
- GI50 (SR): 3160 nM
- GI50 (NCI-H460 [6]): 2510 nM
- GI50 (NCI-H522): 1990 nM
- GI50 (HCC-2998): 3160 nM
- GI50 (SNB-75 [7]): 3160 nM
- GI50 (OVCAR-5 [8]): 3160 nM
- GI50 (ACHN): 2510 nM
- GI50 (RXF 393): 2510 nM
- GI50 (MCF7 [9]): 2510 nM
- GI50 [10, 14]: 2330 nM
- CC50 [10, 15]: 27800 nM
- TGI (subpanel average) [10, 16]: 7640 nM
- GI50 [11, 14]: 2580 nM
- CC50 [11, 15]: 69900 nM
- TGI (subpanel average) [11, 16]: 10270 nM
- GI50 ([12]; read-out: GI50 MG-MID (full panel mean-graph midpoint), reference drugs, ref https://dtp.cancer.gov/dtpstandard/dwindex/index.jsp): 2330 nM
- CC50 ([12]; read-out: LC50 MG-MID (full panel mean-graph midpoint), reference drugs, ref https://dtp.cancer.gov/dtpstandard/dwindex/index.jsp): 43100 nM
- TGI MG-MID (full panel mean-graph midpoint) [12, 16]: 9110 nM
